Laboratory results: US20170114030A1, “COMPOSITION WITH HIGH CONTENT OF CYCLIC DIPEPTIDE” (SUNTORY HOLDINGS LIMITED, priority 2014, published 2017)

How the values were obtained:
[1] = system: plasma active GLP-1; assay: In vivo plasma active GLP-1 level-increasing action after oral administration; design: species or system mice; settings: Experiment 7, 10 mg/kg orally; for Plasma active GLP-1 level (relative value to control group as 100), Average value: male C57/BL6J mice, blood after 30 minutes, 0.5% CMC-Na group = 100; for Significant difference (p < 0.05) vs control group, plasma active GLP-1 level: mice, 30 minutes, Student's t-test
Experimental: (§1) In the Test Examples below, data were represented as average value±standard error. In Test Examples 1, 2, and 3, a Student's t-test was used for a statistical test, and in other Test Examples, one-way ANOVA was carried out for dispersion analysis followed by a multiple comparison test by using a Dunnet's test. […] All of these analyses were carried out by using an SPSS for Windows release 17.0 (manufactured by SPSS Inc.).
Among the cyclic dipeptides, cyclic dipeptides for which an in vitro GLP-1 secretion-accelerating action was found and highly lipid-soluble cyclic dipeptides were used in the following experiment. Seven-week-old male C57/BL6J mice were purchased from CLEA Japan, Inc. for use, and they were subjected to an experiment after 1 week of a habituation period. Each animal was grown in an animal room with an air conditioning system (temperature: 23.5±1.0° C., humidity: 55±10 RH %, air ventilation: 12 to 15 times/hour, illumination: from 7:00 to 19:00/day).
After the habituation period, the mice were subjected to 5.5 hours of food deprivation and 2 hours of water deprivation. Thereafter, a cyclic dipeptide dissolved or suspended in a 0.5% CMC-Na aqueous solution in 10 mg/kg was orally administered to each mouse forcibly. After 30 minutes, the blood was collected from the abdominal vena cava under anesthesia, and 1 μL of heparin sodium and 1 μL of 10 mM Sitagliptin phosphate were added to each collected blood, which was then subjected to centrifugation at 8000 rpm for 10 minutes to recover the plasma, and the plasma active GLP-1 level was measured by using the ELISA kit. In the analysis, the active GLP-1 level for a group administered with 0.5% CMC-Na aqueous solution was defined as 100, and relative values thereto were used.
In each Table, cyclic dipeptides for which an in vivo plasma active GLP-1 level-increasing action was found and was not found are listed.

[2] = system: NCI-H716 cells; assay: In vitro GLP-1 secretion-accelerating action (active GLP-1 ELISA); format: cell-based; settings: for Significant difference (p < 0.05) vs control group, amount of active GLP-1 secreted: 1 hour, Student's t-test; for Amount of active GLP-1 secreted (relative value to control group as 100), Average value: after 1 hour, group with no cyclic dipeptide = 100
Experimental: as §1
Among the cyclic dipeptides, 92 highly water-soluble cyclic dipeptides were used in the following experiment. In each well of a Poly-L-Lysine 96-well plate, NCI-H716 cells suspended in 100 μL of a DMEM (with 10% FBS, 2 mM glutamine, and 1% antibiotics added in advance) were seeded at 0.5×10^5 cells/well, and cultured in a CO2 incubator (manufactured by ESPEC CORP.) for 48 hours. After washing with PBS(+), 100 μL of a PBS(+) solution with each cyclic dipeptide at a final concentration of 10 mM and 10 μM of Sitagliptin phosphate added therein was added to the cells. After 1 hour, the resultant solution was recovered, and the amount of active GLP-1 in the solution was measured by using the ELISA kit. In the analysis, the amount of active GLP-1 for a group with no cyclic dipeptide added was defined as 100, and relative values thereto were used.
In each Table, cyclic dipeptides for which an in vitro active GLP-1 secretion-accelerating activity was found and was not found are listed.

[3] = Experiment 3, cyclic dipeptide 10 mM with 10 μM Sitagliptin phosphate
[4] = Experiment 4, cyclic dipeptide 10 mM with 10 μM Sitagliptin phosphate

Row | Compound | Significant difference (p < 0.05) vs control group, amount of active GLP-1 secreted ([2]; Experiment 3, 10 mM) | Amount of active GLP-1 secreted (relative value to control group as 100), Average value [2, 3] | other results
1 | CC(C)C1NC(=O)C(Cc2ccc(O)cc2)NC1=O (stereo not drawn) [compound 88] |  |  | Plasma active GLP-1 level (relative value to control group as 100), Average value [1]: 385; Significant difference (p < 0.05) vs control group, plasma active GLP-1 level [1]: Yes
2 | CC(O)C1NC(=O)C(Cc2ccc(O)cc2)NC1=O (stereo not drawn) [compound 90] |  |  | Plasma active GLP-1 level (relative value to control group as 100), Average value [1]: 466; Significant difference (p < 0.05) vs control group, plasma active GLP-1 level [1]: Yes
3 | CC1NC(=O)C(CC(N)=O)NC1=O (stereo not drawn) [compound 124] | No | 116 | 
4 | NC(=O)CCC1NC(=O)CNC1=O (stereo not drawn) [compound 126] | Yes | 210 | 
5 | NC(=O)CC1NC(=O)C(CCC(=O)O)NC1=O (stereo not drawn) [compound 129] | No | 118 | 
6 | NC(=O)CCC1NC(=O)C(CCC(=O)O)NC1=O (stereo not drawn) [compound 130] | No | 120 | 
7 | NC(=O)CCC1NC(=O)C(CO)NC1=O (stereo not drawn) [compound 136] | No | 251 | 
8 | CC1NC(=O)C(CC(=O)O)NC1=O (stereo not drawn) [compound 153] | No | 94 | 
9 | O=C1CNC(=O)C(CO)N1 (stereo not drawn) [compound 154] | No | 116 | 
10 | N=C(N)NCCCC1NC(=O)C(CO)NC1=O (stereo not drawn) [compound 159] | Yes | 135 | 
11 | CC(O)C1NC(=O)C(CC(=O)O)NC1=O (stereo not drawn) [compound 165] | No | 140 | 
12 | CC(O)C1NC(=O)C(CC(N)=O)NC1=O (stereo not drawn) [compound 166] | No | 149 | 
13 | CC(O)C1NC(=O)C(CCC(N)=O)NC1=O (stereo not drawn) [compound 167] | No | 156 | 
14 | CC(O)C1NC(=O)C(CCCNC(=N)N)NC1=O (stereo not drawn) [compound 168] | No | 142 | 
15 | NC(=O)CC1NC(=O)C(CC(=O)O)NC1=O (stereo not drawn) [compound 170] | No | 125 | 
16 | CSCCC1NC(=O)C(CCC(N)=O)NC1=O (stereo not drawn) [compound 186] |  |  | Significant difference (p < 0.05) vs control group, amount of active GLP-1 secreted ([2]; Experiment 4, 10 mM): Yes; Amount of active GLP-1 secreted (relative value to control group as 100), Average value [2, 4]: 191
17 | N=C(N)NCCCC1NC(=O)C(Cc2c[nH]c3ccccc23)NC1=O (stereo not drawn) [compound 189] |  |  | Significant difference (p < 0.05) vs control group, amount of active GLP-1 secreted ([2]; Experiment 4, 10 mM): Yes; Amount of active GLP-1 secreted (relative value to control group as 100), Average value [2, 4]: 314
18 | O=C(O)CCC1NC(=O)C(CO)NC1=O (stereo not drawn) [compound 192] |  |  | Amount of active GLP-1 secreted (relative value to control group as 100), Average value [2, 4]: 993
19 | N=C(N)NCCCC1NC(=O)C(CC(N)=O)NC1=O (stereo not drawn) [compound 197] |  |  | Significant difference (p < 0.05) vs control group, amount of active GLP-1 secreted ([2]; Experiment 4, 10 mM): Yes; Amount of active GLP-1 secreted (relative value to control group as 100), Average value [2, 4]: 359
20 | N=C(N)NCCCC1NC(=O)C(CCCNC(=N)N)NC1=O (stereo not drawn) [compound 212] |  |  | Significant difference (p < 0.05) vs control group, amount of active GLP-1 secreted ([2]; Experiment 4, 10 mM): Yes; Amount of active GLP-1 secreted (relative value to control group as 100), Average value [2, 4]: 1050
